PubChem BioAssay (NCI)
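Step 1: Grow cells in 96-well plates. Step 2: Expose to compound for 48 hours at 5 concentrations. Step 3: Interpolate endpoints linearly; if unreached, use highest concentration. GI50 is the concentration that inhibits growth by half. At the TGI there is no net growth.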

Legend:
Assay in all cases: NCI anticancer screen, dose series, 48 h
SW-620 colon = system: SW-620 colon
OVCAR-5 ovarian = system: OVCAR-5 ovarian
SK-MEL-2 melanoma = system: SK-MEL-2 melanoma
CAKI-1 renal = system: CAKI-1 renal
SF-268 CNS = system: SF-268 CNS
HOP-92 NSCLC = system: HOP-92 NSCLC
COLO 205 colon = system: COLO 205 colon
PC-3 prostate = system: PC-3 prostate
HCT-116 colon = system: HCT-116 colon
SR leukemia = system: SR leukemia
RPMI-8226 leukemia = system: RPMI-8226 leukemia
SK-OV-3 ovarian = system: SK-OV-3 ovarian
786-0 renal = system: 786-0 renal
NCI-H522 lung = system: NCI-H522 lung
NCI-H460 lung = system: NCI-H460 lung
M14 melanoma = system: M14 melanoma
A498 renal = system: A498 renal
MDA-MB-435 = system: MDA-MB-435
HCC-2998 colon = system: HCC-2998 colon
A549 NSCLC = system: A549 NSCLC
SK-MEL-28 melanoma = system: SK-MEL-28 melanoma
KM12 colon = system: KM12 colon
UACC-257 melanoma = system: UACC-257 melanoma
EKVX NSCLC = system: EKVX NSCLC
OVCAR-4 ovarian = system: OVCAR-4 ovarian
T-47D breast = system: T-47D breast
SNB-19 CNS = system: SNB-19 CNS
LOX IMVI melanoma = system: LOX IMVI melanoma
OVCAR-3 ovarian = system: OVCAR-3 ovarian
NCI-H23 lung = system: NCI-H23 lung
SF-295 CNS = system: SF-295 CNS
HT29 colon = system: HT29 colon
DU-145 prostate = system: DU-145 prostate
MOLT-4 leukemia = system: MOLT-4 leukemia
SNB-75 CNS = system: SNB-75 CNS
BT-549 breast = system: BT-549 breast
HL-60(TB) leukemia = system: HL-60(TB) leukemia
OVCAR-8 ovarian = system: OVCAR-8 ovarian
CCRF-CEM leukemia = system: CCRF-CEM leukemia
NCI/ADR-RES ovarian = system: NCI/ADR-RES ovarian
HOP-62 NSCLC = system: HOP-62 NSCLC
NCI-H226 lung = system: NCI-H226 lung
UACC-62 melanoma = system: UACC-62 melanoma
MCF7 breast = system: MCF7 breast
IGROV1 ovarian = system: IGROV1 ovarian
MALME-3M melanoma = system: MALME-3M melanoma
TK-10 renal = system: TK-10 renal
RXF 393 renal = system: RXF 393 renal
UO-31 renal = system: UO-31 renal
K-562 leukemia = system: K-562 leukemia
HS 578T breast = system: HS 578T breast
HCT-15 colon = system: HCT-15 colon
U251 CNS = system: U251 CNS
ACHN renal = system: ACHN renal
SN12C renal = system: SN12C renal
SK-MEL-5 melanoma = system: SK-MEL-5 melanoma
SF-539 CNS = system: SF-539 CNS
MDA-MB-231 breast = system: MDA-MB-231 breast

For `COc1cc2ncn(-c3cc(OCc4ccccc4S(C)(=O)=O)c(C#N)s3)c2cc1OC`, the GI50 (SW-620 colon) was greater than 25 µM, the TGI (SW-620 colon) was greater than 25 µM and the GI50 (OVCAR-5 ovarian) was greater than 25 µM. It also gave a TGI (OVCAR-5 ovarian) greater than 25 µM, a GI50 (SK-MEL-2 melanoma) greater than 23.4 µM and a TGI (SK-MEL-2 melanoma) greater than 25 µM. The GI50 (CAKI-1 renal) was greater than 25 µM, the TGI (CAKI-1 renal) was greater than 25 µM and the GI50 (SF-268 CNS) was greater than 22.7 µM. It also gave a TGI (SF-268 CNS) greater than 25 µM, a GI50 (HOP-92 NSCLC) greater than 14.2 µM and a TGI (HOP-92 NSCLC) greater than 25 µM. For the same molecule, the GI50 (COLO 205 colon) was greater than 25 µM, the TGI (COLO 205 colon) was greater than 25 µM and the GI50 (PC-3 prostate) was greater than 25 µM. The TGI (PC-3 prostate) was greater than 25 µM, the GI50 (HCT-116 colon) was greater than 25 µM and the TGI (HCT-116 colon) was greater than 25 µM. It also gave a GI50 (SR leukemia) greater than 25 µM, a TGI (SR leukemia) greater than 25 µM and a GI50 (RPMI-8226 leukemia) greater than 25 µM. It also gave a TGI (RPMI-8226 leukemia) greater than 25 µM, a GI50 (SK-OV-3 ovarian) greater than 16.1 µM and a TGI (SK-OV-3 ovarian) greater than 25 µM. For the same molecule, the GI50 (786-0 renal) was greater than 25 µM, the TGI (786-0 renal) was greater than 25 µM and the GI50 (NCI-H522 lung) was greater than 25 µM. For the same molecule, the TGI (NCI-H522 lung) was greater than 25 µM, the GI50 (NCI-H460 lung) was greater than 25 µM and the TGI (NCI-H460 lung) was greater than 25 µM. For the same molecule, the GI50 (M14 melanoma) was greater than 25 µM, the TGI (M14 melanoma) was greater than 25 µM and the GI50 (A498 renal) was greater than 25 µM. For the same molecule, the TGI (A498 renal) was greater than 25 µM, the GI50 (MDA-MB-435) was greater than 25 µM and the TGI (MDA-MB-435) was greater than 25 µM. It also gave a GI50 (HCC-2998 colon) greater than 25 µM, a TGI (HCC-2998 colon) greater than 25 µM and a GI50 (A549 NSCLC) greater than 25 µM. The TGI (A549 NSCLC) was greater than 25 µM, the GI50 (SK-MEL-28 melanoma) was greater than 25 µM and the TGI (SK-MEL-28 melanoma) was greater than 25 µM. It also gave a GI50 (KM12 colon) greater than 25 µM, a TGI (KM12 colon) greater than 25 µM and a GI50 (UACC-257 melanoma) greater than 25 µM. It also gave a TGI (UACC-257 melanoma) greater than 25 µM, a GI50 (EKVX NSCLC) greater than 25 µM and a TGI (EKVX NSCLC) greater than 25 µM. For the same molecule, the GI50 (OVCAR-4 ovarian) was greater than 25 µM, the TGI (OVCAR-4 ovarian) was greater than 25 µM and the GI50 (T-47D breast) was greater than 25 µM. The TGI (T-47D breast) was greater than 25 µM, the GI50 (SNB-19 CNS) was 15.1 µM and the TGI (SNB-19 CNS) was greater than 25 µM. The GI50 (LOX IMVI melanoma) was greater than 25 µM, the TGI (LOX IMVI melanoma) was greater than 25 µM and the GI50 (OVCAR-3 ovarian) was greater than 25 µM. It also gave a TGI (OVCAR-3 ovarian) greater than 25 µM, a GI50 (NCI-H23 lung) greater than 25 µM and a TGI (NCI-H23 lung) greater than 25 µM. For the same molecule, the GI50 (SF-295 CNS) was greater than 25 µM, the TGI (SF-295 CNS) was greater than 25 µM and the GI50 (HT29 colon) was greater than 25 µM. For the same molecule, the TGI (HT29 colon) was greater than 25 µM, the GI50 (DU-145 prostate) was greater than 25 µM and the TGI (DU-145 prostate) was greater than 25 µM. For the same molecule, the GI50 (MOLT-4 leukemia) was greater than 25 µM, the TGI (MOLT-4 leukemia) was greater than 25 µM and the GI50 (SNB-75 CNS) was 8.19 µM. For the same molecule, the TGI (SNB-75 CNS) was greater than 22.6 µM, the GI50 (BT-549 breast) was greater than 25 µM and the TGI (BT-549 breast) was greater than 25 µM. It also gave a GI50 (HL-60(TB) leukemia) greater than 25 µM, a TGI (HL-60(TB) leukemia) greater than 25 µM and a GI50 (OVCAR-8 ovarian) greater than 23.1 µM. For the same molecule, the TGI (OVCAR-8 ovarian) was greater than 25 µM, the GI50 (CCRF-CEM leukemia) was greater than 25 µM and the TGI (CCRF-CEM leukemia) was greater than 25 µM. It also gave a GI50 (NCI/ADR-RES ovarian) greater than 25 µM, a TGI (NCI/ADR-RES ovarian) greater than 25 µM and a GI50 (HOP-62 NSCLC) greater than 10.8 µM. The TGI (HOP-62 NSCLC) was greater than 20.8 µM, the GI50 (NCI-H226 lung) was greater than 25 µM and the TGI (NCI-H226 lung) was greater than 25 µM. It also gave a GI50 (UACC-62 melanoma) greater than 25 µM, a TGI (UACC-62 melanoma) greater than 25 µM and a GI50 (MCF7 breast) greater than 25 µM. For the same molecule, the TGI (MCF7 breast) was greater than 25 µM, the GI50 (IGROV1 ovarian) was greater than 25 µM and the TGI (IGROV1 ovarian) was greater than 25 µM. For the same molecule, the GI50 (MALME-3M melanoma) was greater than 25 µM, the TGI (MALME-3M melanoma) was greater than 25 µM and the GI50 (TK-10 renal) was greater than 25 µM. The TGI (TK-10 renal) was greater than 25 µM, the GI50 (RXF 393 renal) was greater than 14.9 µM and the TGI (RXF 393 renal) was greater than 25 µM. The GI50 (UO-31 renal) was greater than 25 µM, the TGI (UO-31 renal) was greater than 25 µM and the GI50 (K-562 leukemia) was greater than 25 µM. For the same molecule, the TGI (K-562 leukemia) was greater than 25 µM, the GI50 (HS 578T breast) was greater than 17.9 µM and the TGI (HS 578T breast) was greater than 25 µM. For the same molecule, the GI50 (HCT-15 colon) was greater than 25 µM, the TGI (HCT-15 colon) was greater than 25 µM and the GI50 (U251 CNS) was greater than 22.3 µM. For the same molecule, the TGI (U251 CNS) was greater than 25 µM, the GI50 (ACHN renal) was greater than 25 µM and the TGI (ACHN renal) was greater than 25 µM. For the same molecule, the GI50 (SN12C renal) was greater than 25 µM, the TGI (SN12C renal) was greater than 25 µM and the GI50 (SK-MEL-5 melanoma) was greater than 25 µM. The TGI (SK-MEL-5 melanoma) was greater than 25 µM, the GI50 (SF-539 CNS) was greater than 25 µM and the TGI (SF-539 CNS) was greater than 25 µM. The GI50 (MDA-MB-231 breast) was greater than 25 µM and the TGI (MDA-MB-231 breast) was greater than 25 µM.
